Read-outs that look alike come from different tables or passages of the source. Numbered stars: 1 amine (or outer) side, 2 acyl side, 3 side chain; on linkers, the order of the positions; unused ones are H or OH. Square brackets hold non-standard residues; d marks the D form. Side chains are listed from the residue outwards. Peptide text beside a SMILES is read from it. * marks the point of attachment. C20 diacid = O=C(O)CCCCCCCCCCCCCCCCCCC(=O)*; C18 diacid = O=C(O)CCCCCCCCCCCCCCCCC(=O)*; γGlu = O=C(O)[C@H](CCC(=O)[*:2])N[*:1]; αMeL = CC(C)C[C@](C)(N)C(=O)O; Orn = NCCC[C@H](N)C(=O)O; AEEA = NCCOCCOCC(=O)O; Aib = CC(C)(N)C(=O)O
How the values were obtained:
human Gcg receptor = biological target: T1, human Gcg receptor (Homo sapiens, UniProt P47871); experiment: [125I]-Glucagon binding (SPA), human Gcg receptor
T1 construct: expressed in transfected cells; crude membranes
Summary of the method: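 Crude membranes from cells expressing the receptor, prepared by hypotonic lysis in 50 mM Tris HCl pH 7.5 with protease inhibitors, homogenization and differential centrifugation, were used in a WGA-bead SPA. Binding buffer: 25 mM HEPES pH 7.4, 2.5 mM CaCl2, 1 mM MgCl2, bacitracin, Tween-20.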

human GLP-1R [1] = biological target: T2, human GLP-1R (Homo sapiens, UniProt P43220); experiment: [125I]-GLP-1 binding (SPA), human GLP-1 receptor; set-up: expressed in transfected cells; crude membranes
Summary of the method: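 Crude-membrane binding assay; one membrane prep included 1 mM MgCl2 and 25 units/ml DNAse I during lysis. Assay buffer at pH 7.4 contains 0.1% (w/v) bacitracin and 0.003% (w/v) TWEEN-20. Ki is reported as geometric mean.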

[2] = biological target: T3, gastric inhibitory peptide receptor (GIPR) (Homo sapiens, UniProt P48546); experiment: cAMP pharmacological functional assay in presence of casein, hGIPR; assay type: cell-based
T3 sequence (P48546 22-466): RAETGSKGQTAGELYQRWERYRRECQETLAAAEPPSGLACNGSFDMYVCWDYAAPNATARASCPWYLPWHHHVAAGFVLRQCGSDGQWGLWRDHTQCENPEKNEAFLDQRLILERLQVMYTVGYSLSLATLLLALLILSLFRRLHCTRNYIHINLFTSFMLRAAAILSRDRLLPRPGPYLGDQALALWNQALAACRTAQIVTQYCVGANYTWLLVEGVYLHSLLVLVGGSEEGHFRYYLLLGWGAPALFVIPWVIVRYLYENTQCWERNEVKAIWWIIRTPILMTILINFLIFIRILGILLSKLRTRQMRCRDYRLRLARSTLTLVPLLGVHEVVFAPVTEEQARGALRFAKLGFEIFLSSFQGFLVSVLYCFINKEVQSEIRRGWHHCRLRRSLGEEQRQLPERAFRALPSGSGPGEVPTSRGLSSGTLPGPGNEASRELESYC

human GLP-1R [3] = biological target: T2, human GLP-1R; experiment: GLP-1R CHO cell β-arrestin recruitment assay; assay type: cell-based; set-up: host or cells: CHO-K1 PathHunter cells, assay-ready frozen; conditions: for hGLP1R B-Arrestin2 % Top: normalized to GLP-1 maximum control
Summary of the method: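 PathHunter CHO-K1 cells with ProLink-tagged human GLP-1R and enzyme-acceptor-tagged β-arrestin-2 treated with serially diluted peptides in assay buffer containing 0.1% hydrolyzed casein, 90 min at 37 °C.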

human GIP receptor = biological target: T4, human GIP receptor (Homo sapiens, UniProt P48546); experiment: [125I]-GIP binding (SPA), human GIP receptor
T4 construct: expressed in transfected cells; crude membranes
T4 sequence (P48546 22-466): T3 sequence (P48546 22-466)

[4] = biological target: human GLP-1 receptor (GLP-1R) (Homo sapiens, UniProt P43220); experiment: cAMP pharmacological functional assay in presence of casein, hGLP-1R; assay type: cell-based
human GLP-1R [5] = biological target: T2, human GLP-1R; experiment: GLP-1R HEK293 cell membrane [35S]GTPγS binding assay; assay type: biochemical; set-up: expressed in transfected cells; host or cells: HEK293 cells expressing human GLP-1R; membranes
Summary of the method: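 Membranes from HEK293 cells expressing the receptor incubated with peptide and […] [35S]GTPγS in HEPES pH 7.4 buffer with NaCl, MgCl2, saponin and BSA, 30 min at room temperature. Gαs-bound label captured by anti-Gαs antibody/SPA beads and counted; EC50 from four-parameter logistic fit.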

[6] = read-out: hGLcgR Ki, nM (SEM, n)
[7] = read-out: hGLP1R Ki, (nM) (SEM, n)
[8] = HEK293 cells expressing hGIPR, 0.1% Casein, geometric mean, read-out: hGIPR cAMP Rel EC50 nM (SEM, n)
[9] = CHO-K1 cells, PathHunter β-arrestin-2 recruitment, 0.1% casein, read-out: hGLP1R B-Arrestin2 Rel EC50 uM (SEM, n)
[10] = read-out: hGIPR Ki, nM (SEM, n)
[11] = HEK293 cells expressing hGLP-1R, 0.1% Casein, geometric mean, read-out: hGLP1R cAMP Rel EC50 nM (SEM, n)
[12] = HEK293 cell membranes expressing human GLP-1R, [35S]GTPγS binding, read-out: hGLP1R GTPgS Rel EC50 nM (SEM, n)

Sequence of human GLP-1 receptor (GLP-1R) (P43220 24-463): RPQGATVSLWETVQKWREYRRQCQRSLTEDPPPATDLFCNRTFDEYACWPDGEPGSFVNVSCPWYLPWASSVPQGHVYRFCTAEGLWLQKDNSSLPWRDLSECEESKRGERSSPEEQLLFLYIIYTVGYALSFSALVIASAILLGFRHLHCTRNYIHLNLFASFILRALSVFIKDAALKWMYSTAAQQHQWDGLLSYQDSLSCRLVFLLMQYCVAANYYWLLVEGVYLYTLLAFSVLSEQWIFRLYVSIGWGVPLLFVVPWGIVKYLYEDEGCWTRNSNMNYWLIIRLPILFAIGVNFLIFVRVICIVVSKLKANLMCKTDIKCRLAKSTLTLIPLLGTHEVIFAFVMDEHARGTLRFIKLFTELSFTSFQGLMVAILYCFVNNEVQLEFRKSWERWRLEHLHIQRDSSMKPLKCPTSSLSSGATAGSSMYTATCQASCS
T2 sequence (P43220 24-463): as above
T1 sequence (P47871 26-477): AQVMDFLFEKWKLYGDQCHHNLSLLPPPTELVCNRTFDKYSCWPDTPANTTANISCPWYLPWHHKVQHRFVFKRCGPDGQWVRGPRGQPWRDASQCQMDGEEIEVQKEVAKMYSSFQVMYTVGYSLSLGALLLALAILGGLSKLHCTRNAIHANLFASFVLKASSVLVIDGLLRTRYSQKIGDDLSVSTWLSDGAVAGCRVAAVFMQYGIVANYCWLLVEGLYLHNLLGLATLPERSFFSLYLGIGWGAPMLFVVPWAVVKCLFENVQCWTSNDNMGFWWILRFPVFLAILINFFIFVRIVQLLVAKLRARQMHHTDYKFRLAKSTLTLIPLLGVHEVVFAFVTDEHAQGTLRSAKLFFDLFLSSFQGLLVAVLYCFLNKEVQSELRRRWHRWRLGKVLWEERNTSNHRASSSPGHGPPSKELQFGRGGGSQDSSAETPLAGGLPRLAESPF

Row | SMILES | Ki (human Gcg receptor) [nM] | Ki (human GLP-1R [1]) [nM] | EC50 [2] [nM] | EC50 (human GLP-1R [3]) [µM] | hGLP1R B-Arrestin2 % Top (human GLP-1R [3]) [%] | Ki (human GIP receptor) [nM] | EC50 [4] [nM] | EC50 (human GLP-1R [5]) [nM] | Ki (human Gcg receptor; [6]) [nM] | Ki (human GLP-1R [1]; [7]) [nM] | EC50 [2, 8] [nM] | EC50 (human GLP-1R [3]; [9]) [µM] | Ki (human GIP receptor; [10]) [nM] | EC50 [4, 11] [nM] | EC50 (human GLP-1R [5]; [12]) [nM]
1 | CC[C@H](C)[C@H](NC(=O)[C@H](CC(C)C)NC(=O)[C@H](Cc1ccc(O)cc1)NC(=O)[C@H](CCC(=O)O)NC(=O)[C@@H](NC(=O)[C@H](Cc1ccccc1)NC(=O)[C@H](C)NC(=O)C(C)(C)NC(=O)[C@H](CCC(N)=O)NC(=O)[C@H](C)NC(=O)[C@H](CCCCNC(=O)COCCOCCNC(=O)COCCOCCNC(=O)CC[C@H](NC(=O)CCCCCCCCCCCCCCCCCCC(=O)O)C(=O)O)NC(=O)[C@H](CCCCN)NC(=O)[C@H](CC(=O)O)NC(=O)[C@H](CC(C)C)NC(=O)[C@](C)(CC(C)C)NC(=O)[C@@H](NC(=O)[C@H](CO)NC(=O)[C@H](Cc1ccc(O)cc1)NC(=O)[C@H](CC(=O)O)NC(=O)[C@H](CO)NC(=O)[C@@H](NC(=O)[C@](C)(Cc1ccccc1)NC(=O)[C@@H](NC(=O)CNC(=O)[C@H](CCC(=O)O)NC(=O)C(C)(C)NC(=O)[C@H](N)Cc1ccc(O)cc1)[C@@H](C)O)[C@@H](C)O)[C@@H](C)CC)[C@@H](C)CC)C(=O)N[C@@H](CCC(=O)O)C(=O)NCC(=O)NCC(=O)N1CCC[C@H]1C(=O)N[C@@H](CO)C(=O)N[C@@H](CO)C(=O)NCC(=O)N[C@@H](C)C(=O)N1CCC[C@H]1C(=O)N1CCC[C@H]1C(=O)N1CCC[C@H]1C(=O)N[C@@H](CO)C(N)=O [Example 335] | 27.1 | 2.54 | 0.0477 | 0.00531 | 73 | 0.0444 | 0.122 | 0.285 | – | – | – | – | – | – | –
2 | CC[C@H](C)[C@H](NC(=O)[C@H](CC(C)C)NC(=O)[C@H](Cc1ccc(O)cc1)NC(=O)[C@H](CCC(=O)O)NC(=O)[C@@H](NC(=O)[C@H](Cc1ccccc1)NC(=O)[C@H](C)NC(=O)C(C)(C)NC(=O)[C@H](CCC(N)=O)NC(=O)[C@H](C)NC(=O)[C@H](CCCCNC(=O)COCCOCCNC(=O)COCCOCCNC(=O)CC[C@H](NC(=O)CCCCCCCCCCCCCCCCCCC(=O)O)C(=O)O)NC(=O)[C@H](CCCN)NC(=O)[C@H](CC(=O)O)NC(=O)[C@H](CC(C)C)NC(=O)[C@](C)(CC(C)C)NC(=O)[C@@H](NC(=O)[C@H](CO)NC(=O)[C@H](Cc1ccc(O)cc1)NC(=O)[C@H](CC(=O)O)NC(=O)[C@H](CO)NC(=O)[C@@H](NC(=O)[C@H](Cc1ccccc1)NC(=O)[C@@H](NC(=O)CNC(=O)[C@H](CCC(=O)O)NC(=O)C(C)(C)NC(=O)[C@H](N)Cc1ccc(O)cc1)[C@@H](C)O)[C@@H](C)O)[C@@H](C)CC)[C@@H](C)CC)C(=O)N[C@@H](C)C(=O)NCC(=O)NCC(=O)N1CCC[C@H]1C(=O)N[C@@H](CO)C(=O)N[C@@H](CO)C(=O)NCC(=O)N[C@@H](C)C(=O)N1CCC[C@H]1C(=O)N1CCC[C@H]1C(=O)N1CCC[C@H]1C(=O)N[C@@H](CO)C(N)=O [Example 346] (H-[dY][Aib]EGTFTSDYSI[αMeL]LD[Orn]K([AEEA-AEEA-γGlu-C20 diacid])AQ[Aib]AFIEYLIAGGPSSGAPPPS-NH2) | – | – | – | – | 19.3 | – | – | – | 310 | 1.67 | 0.144 | 0.00325 | 0.0559 | 0.128 | 0.737
3 | CC[C@H](C)[C@H](NC(=O)[C@H](CC(C)C)NC(=O)[C@H](Cc1ccc(O)cc1)NC(=O)[C@H](CCC(=O)O)NC(=O)[C@@H](NC(=O)[C@H](Cc1ccccc1)NC(=O)[C@H](C)NC(=O)C(C)(C)NC(=O)[C@H](CCC(N)=O)NC(=O)[C@H](C)NC(=O)[C@H](CCCCNC(=O)COCCOCCNC(=O)COCCOCCNC(=O)CC[C@H](NC(=O)CCCCCCCCCCCCCCCCC(=O)O)C(=O)O)NC(=O)[C@H](CCCCN)NC(=O)[C@H](CC(=O)O)NC(=O)[C@H](CC(C)C)NC(=O)[C@H](CC(C)C)NC(=O)[C@@H](NC(=O)[C@H](CO)NC(=O)[C@H](Cc1ccc(O)cc1)NC(=O)[C@H](CC(=O)O)NC(=O)[C@H](CO)NC(=O)[C@@H](NC(=O)[C@H](Cc1ccccc1)NC(=O)[C@@H](NC(=O)CNC(=O)[C@H](CCC(=O)O)NC(=O)C(C)(C)NC(=O)[C@@H](N)Cc1ccc(O)cc1)[C@@H](C)O)[C@@H](C)O)[C@@H](C)CC)[C@@H](C)CC)C(=O)N[C@@H](CCC(=O)O)C(=O)NCC(=O)NCC(=O)N1CCC[C@H]1C(=O)N[C@@H](CO)C(=O)N[C@@H](CO)C(=O)NCC(N)=O [Example 266] (H-Y[Aib]EGTFTSDYSILLDKK([AEEA-AEEA-γGlu-C18 diacid])AQ[Aib]AFIEYLIEGGPSSG-NH2) | – | – | – | – | 17.1 | – | – | – | 193 | 2.01 | 0.0442 | 0.016 | 0.0666 | 0.0883 | 0.865
